Like-named read-outs stand apart in the source and are kept apart here.
Assays:
PhKγ2 = target: T1, PhKγ2 (Homo sapiens, UniProt P15735); test: Kinase selectivity profiling (Eurofins), PhKγ2; format: biochemical
T1 construct: purchased Eurofins
T1 sequence (P15735 1-406): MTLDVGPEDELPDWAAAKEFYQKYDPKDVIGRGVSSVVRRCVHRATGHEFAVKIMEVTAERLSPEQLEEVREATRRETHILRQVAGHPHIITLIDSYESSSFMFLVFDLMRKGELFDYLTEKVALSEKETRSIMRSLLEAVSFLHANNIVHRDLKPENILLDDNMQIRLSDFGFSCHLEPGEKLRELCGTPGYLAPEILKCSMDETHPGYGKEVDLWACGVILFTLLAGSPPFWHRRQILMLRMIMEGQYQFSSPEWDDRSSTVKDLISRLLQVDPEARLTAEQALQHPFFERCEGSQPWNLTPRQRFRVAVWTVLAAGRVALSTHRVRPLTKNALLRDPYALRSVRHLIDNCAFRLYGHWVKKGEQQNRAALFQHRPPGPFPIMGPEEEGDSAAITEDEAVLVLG
Source text: The results of this screening were mapped over the annotated human kinome phylogenetic tree using Kinome Render (Figure 2).
Kinases inhibited less than 25% have their names in green text. Kinases inhibited >25% and ≤50% have yellow circles, >50% and ≤75% have orange circles, and >75% have red circles. In each case, the size of the circle is proportional to the percentage inhibition. ROCK1 and MRCKα positions are indicated on the tree for orientation purposes. Illustration reproduced courtesy of Cell Signaling Technology, Inc. (www.cellsignal.com).
MRCKα, MRCKβ, ROCK1 and ROCK2 assays were performed using an IMAP fluorescence polarization assay format (Molecular Devices Inc.). 8–12 nM of each kinase (Life Technologies) was incubated for 60 min at room temperature with 100 nM FAM-S6-ribosomal protein derived peptide (synthesized by Alta Biosciences, University of Birmingham UK) in the presence of 1 μM ATP and 0.5 mM MgCl2 in 20 mM Tris buffer (pH 7.4) containing 0.01% Tween-20 and 1 mM DTT (MRCKα and β); or 1 μM ATP, 10 mM MgCl2 in 20 mM Tris buffer (pH 7.5) containing 0.25 mM EGTA 0.01% Triton X-100 and 1 mM DTT (ROCK1 and ROCK2). […] After 30 min incubation to allow binding reagent to bind phosphorylated peptide, fluorescence polarization was measured on a Tecan Saphire^2 plate reader at excitation (470 nm) and emission (530 nm) wavelengths. […]

[1] = test system: MLC phosphorylation in MDA-MB-231 cells; test: MLC phosphorylation in parental MDA-MB-231 breast cancer cells (quantitative western blot); format: cell-based, human; conditions: for EC50: parental MDA-MB-231, 30 minutes treatment, read-out: EC50, inhibition of MLC phosphorylation; for pMLC on western blots at higher concentrations: parental MDA-MB-231, higher concentrations
Experimental: All results are shown as mean ± standard error of n = 3 independent replicates. […] After fixation and permeabilization, cells were stained with phalloidin to visualize filamentous actin structures and pMLC (S19) primary antibody as indicated.
Cell lysates were prepared as described previously. For pMLC western blots, cells were lysed in a 1% (w/v) SDS, 50 mM Tris pH 7.5 buffer and lysates were passed through QIAshredder columns (Qiagen, 79654). Alternatively, for pMLC western blots lysates were prepared in lysis buffer with 50 mM Tris (pH7.5), 0.5% (w/v) SDS, supplemented with Complete Protease and PhosSTOP inhibitors (Roche). Whole cell lysates were separated by SDS-PAGE, transferred to Protran nitrocellulose membranes (Whatman), probed with primary antibodies and appropriate IR dye-conjugated secondary antibodies. Blots were visualized using a Licor Odyssey according to manufacturer’s instructions. Antibodies used in this study were: MRCKα (611584) from BD Transduction Laboratories; MRCKβ (H00009578-A01) from Abnova; MRCKα/β (MANDM1 6G8) from Glenn Morris (Centre for Inherited Neuromuscular Disease, Oswestry UK); MRCL3/MRLC2/MYL9 (sc-28329) from Santa Cruz Biotechnology; pMLC2 Thr18/Ser19 (3674) from Cell Signaling Technology. ROCK1/2 (07–1458) from Millipore; TetR (Clone 9G9; 631132) from Clontech; α-Tubulin (TU-02; sc-8035) from Santa Cruz Biotechnology; ERK2 from Chris Marshall (Institute of Cancer Research, London UK). Secondary antibodies used were: goat anti-mouse IgG Dylight 800 from Thermo Scientific (35521), goat anti rabbit IgG AlexaFluor 680 from Invitrogen (A12076), goat anti-rabbit IgG IR Dye 800 CW (926–32211) and goat anti-mouse IgG IR Dye 680 (926–68020) were from LI-COR Biosciences.

SCC12 cells = test: Cell confluence by Incucyte image analysis, SCC12 cells; format: cell-based, human; conditions: 2 μM, 21 hours
Experimental: All results are shown as mean ± standard error of n = 3 independent replicates. […] Readings were compared to the Alamar Blue metabolism in DMSO treated cells that were used as the viability standard of 100% for each replicate experiment. […] (F) Number of invading cells was determined in 5 random fields for each condition for each separate replicate experiment. All results are shown as mean ± standard error of n ≥ 3 independent replicates.
MDA MB 231 or SCC12 cells were plated in a 96 well plate and cultured for 24 hours. […] Pictures were taken every 3 hours and confluence was measured using the IncuCyte analysis software. AlamarBlue (Invitrogen, DAL 1025) was added to the medium and the cells were cultured for an additional day. Absorbances at 570 nm and at 600 nm were measured to assess cell health.

Caco-2 permeability = format: in vitro ADME; conditions: human

## O=C(Nc1cn[nH]c1-c1ccccn1)c1nn(C2CCNCC2)cc1Cl [BDP5290, 4-chloro-1-(4-piperidyl)-N-[5-(2-pyridyl)-1H-pyrazol-4-yl]pyrazole-3-carboxamide]
PhKγ2
  inhibition at 10 µM: > 75%
[1]; Homo sapiens, 0.5 h
  EC50: 0.316 µM
[1]
  pMLC on western blots at higher concentrations: reduced pMLC to undetectable levels
SCC12 cells
  cell confluence: did not significantly differ between treatments
Caco-2 permeability
  Papp: 0.171 ×10⁻⁶ cm/s

## C[C@@H](N)[C@H]1CC[C@H](C(=O)Nc2ccncc2)CC1 [Y27632, reference compound]
[1]
  EC50: 0.407 µM
  pMLC on western blots at higher concentrations: unable to completely inhibit pMLC
SCC12 cells
  cell confluence: did not significantly differ between treatments
